The EC50 is the concentration giving half of the maximal effect. Usually Emax stands for the greatest response seen or fitted, relative to the assay's reference. For orientation: Cmax means the maximum level reached in the sampled fluid or tissue. As usually defined, the Tmax is the time from dosing to the highest level. Broadly, the bioavailability is dose-corrected exposure relative to a reference, in per cent.

*1 amine or outer side, *2 acyl side, *3 side chain or, on linkers, in order; H or OH if unused. Where a SMILES comes first, the peptide text is derived from it. Side-chain parts run from the residue outwards. [ ]: non-standard residue; d: D form. The star is where a group is joined. X4 = CCCCCCCCCCCCCCCC(=O)N[C@@H](CCC(=O)N[C@@H](CCC(=O)NCCCC[C@H](NC(=O)CC[C@H](NC(=O)CC[C@H](NC(=O)CCC(=O)NCCCOCCOCCOCCCNC(=O)CCC(=O)NCCCOCCOCCOCCCNC(=O)CCC(=O)NCCCOCCOCCOCCCN*)C(=O)O)C(=O)O)C(N)=O)C(=O)O)C(=O)O; PEG12 = NCCOCCOCCOCCOCCOCCOCCOCCOCCOCCOCCOCCOCCC(=O)O; γGlu = O=C(O)[C@H](CCC(=O)[*:2])N[*:1]; Stearoyl = CCCCCCCCCCCCCCCCCC(=O)*; Palmitoyl = CCCCCCCCCCCCCCCC(=O)*; αMeK = C[C@](N)(CCCCN)C(=O)O; Nle = CCCC[C@H](N)C(=O)O; AEEA = NCCOCCOCC(=O)O; Aib = CC(C)(N)C(=O)O

In one data set the target is T1, RXFP1 (Homo sapiens, UniProt Q9HBX9).
T1 construct: OVCAR5 cells expressing endogenous RXFP1; endogenous in cells; host or cells: OVCAR5 cells
T1 sequence (Q9HBX9 1-757): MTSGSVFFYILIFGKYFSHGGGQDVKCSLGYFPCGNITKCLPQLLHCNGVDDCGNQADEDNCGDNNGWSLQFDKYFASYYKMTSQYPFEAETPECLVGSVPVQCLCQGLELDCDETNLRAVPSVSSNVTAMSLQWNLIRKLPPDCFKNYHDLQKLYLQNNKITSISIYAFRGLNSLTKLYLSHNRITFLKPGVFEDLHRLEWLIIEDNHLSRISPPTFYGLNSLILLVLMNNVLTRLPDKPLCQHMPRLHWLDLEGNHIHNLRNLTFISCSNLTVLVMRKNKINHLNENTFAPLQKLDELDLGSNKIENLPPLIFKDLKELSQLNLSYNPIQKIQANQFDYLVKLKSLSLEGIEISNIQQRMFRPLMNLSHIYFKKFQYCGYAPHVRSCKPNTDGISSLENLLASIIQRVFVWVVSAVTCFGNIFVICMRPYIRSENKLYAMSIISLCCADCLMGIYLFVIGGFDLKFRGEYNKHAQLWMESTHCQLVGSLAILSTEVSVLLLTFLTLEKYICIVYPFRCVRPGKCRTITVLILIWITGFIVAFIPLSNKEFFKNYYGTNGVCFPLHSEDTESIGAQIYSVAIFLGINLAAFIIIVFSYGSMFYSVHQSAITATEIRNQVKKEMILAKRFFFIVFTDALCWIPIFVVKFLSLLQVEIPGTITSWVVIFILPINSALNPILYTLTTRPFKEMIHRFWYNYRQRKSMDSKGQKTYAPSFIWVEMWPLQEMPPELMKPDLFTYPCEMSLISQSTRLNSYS
Put plainly: OVCAR5 cAMP assay (HTRF), RXFP1 agonist activity. The data set is classed as cell-based. As to conditions: for EC50: OVCAR5 cells, cAMP HTRF, read-out: EC50 (nM), OVCAR 5 cells (cAMP); for Emax: OVCAR-5, maximal cAMP relative to H2-relaxin maximum (100%), read-out: EMax, OVCAR 5 cells (cAMP). The essentials: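 OVCAR5 cells (endogenous RXFP1) pretreated 40 min at 37° C with 1 mM IBMX, then exposed to peptides in serum-free medium for 30 min at 37° C. Lysate cAMP read by HTRF; EC50 from variable-slope sigmoidal fit; Emax as % of H2-relaxin maximal cAMP in same run.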
In general terms: cAMP levels reflect the balance of adenylyl cyclase and phosphodiesterase activity.

A short description of data set [1]: Pharmacokinetic (PK) determination after i.v. or s.c. administration to rats. As to conditions: Sprague Dawley, Rat PK; for C0 / half-life: iv, 1 mg/kg i.v.; for C0: extrapolated plasma concentration at t=0, read-out: C0; for half-life / Cmax / Tmax / bioavailability: plasma; for half-life: read-out: T½ (converted); for Cmax / Tmax: sc, 3 mg/kg s.c.; for bioavailability: subcutaneous, 3 mg/kg s.c. vs 1 mg/kg i.v., dose-corrected AUC ratio. The class given is in vivo, Sprague Dawley rats. As for the experimental part: Prior to the testing of a peptide batch, its purity (HPLC-UV) was determined. Dose was corrected for presence of salts, solvent and purity.
Sprague Dawley rats were dosed with study peptide at a dose of 1 mg/kg intravenously (i.v.) or 3 mg/kg subcutaneously (s.c.) as a solution in PBS (0.2 mg/ml and 0.6 mg/ml respectively).
Plasma samples were analyzed after protein precipitation via liquid chromatography mass spectrometry (LC/MS).
PK parameters and half-life were calculated using Phoenix 64 (WinNonlin 6.4)-Pharsight (Certara™) (non-compartment model). Values below the limit of quantification (BLQ) were replaced by zero for subsequent calculations and PK analysis.
T½: in-vivo half life, time required for test compound plasma concentration to be divided by two during the PK experiment.
C0: Extrapolated test compound plasma concentration at t=0 time point (i.v. route).
Cmax: maximal test compound plasma concentration at the indicated time point (s.c. route).
Tmax: Time point where Cmax is attained.
F %: s.c. vs i.v. bioavailability, dose-corrected area under curve (AUC) s.c. route divided by AUC i.v.

`CCCCCCCCCCCCCCCCCC(=O)N[C@@H](CCC(=O)N[C@@H](CCC(=O)N[C@@H](CCC(=O)NCCOCCOCC(=O)NCCOCCOCC(=O)NCCOCCOCC(=O)NCCCC[C@H](NC(=O)[C@H](CCCCN)NC(=O)[C@H](CCCNC(=N)N)NC(=O)C(C)(C)NC(=O)[C@H](CO)NC(=O)[C@H](Cc1c[nH]c2ccccc12)NC(=O)[C@@H](NC(=O)[C@H](CO)NC(=O)[C@H](CCCC)NC(=O)CNC(=O)[C@H](CCC(=O)O)NC(=O)C(C)(C)NC(=O)C(C)(C)NC(=O)[C@@H](NC(=O)[C@H](CCC(N)=O)NC(=O)[C@H](C)NC(=O)[C@H](CCCNC(=N)N)NC(=O)[C@@H](NC(=O)[C@H](CCCCN)NC(=O)[C@H](CCC(=O)O)NC(=O)[C@H](CCCNC(=N)N)NC(=O)CNC(=O)[C@H](CCC(=O)O)NC(=O)[C@H](CC(C)C)NC(C)=O)C(C)C)[C@@H](C)CC)[C@@H](C)O)C(N)=O)C(=O)O)C(=O)O)C(=O)O` [compound 74] (Ac-LEGREKVRAQI[Aib][Aib]EG[Nle]STWS[Aib]RKK([AEEA-AEEA-AEEA-γGlu-γGlu-γGlu-Stearoyl])-NH2): on RXFP1, the EC50 came out at 0.07 nM and the Emax is 85%. In data set [1], the C0 is 3 µM, the half-life is 3.89 h, the concentration peaked (Cmax) at 1.63 µM and the Tmax turned out to be 7 h. Also, the bioavailability in data set [1] was found to be 70%.
Regarding `CCCCCCCCCCCCCCCC(=O)N[C@@H](CCC(=O)N[C@@H](CCC(=O)N[C@@H](CCC(=O)NCCCC[C@H](NC(=O)CCOCCOCCOCCOCCOCCOCCOCCOCCOCCOCCOCCOCCNC(=O)[C@H](CCCCN)NC(=O)[C@H](CCCNC(=N)N)NC(=O)C(C)(C)NC(=O)[C@H](CO)NC(=O)[C@H](Cc1c[nH]c2ccccc12)NC(=O)[C@@H](NC(=O)[C@H](CO)NC(=O)[C@H](CCCC)NC(=O)CNC(=O)[C@H](CCC(=O)O)NC(=O)C(C)(C)NC(=O)C(C)(C)NC(=O)[C@@H](NC(=O)[C@H](CCCCNC(C)=O)NC(=O)[C@H](C)NC(=O)[C@H](CCCNC(=N)N)NC(=O)[C@@H](NC(=O)[C@H](CCCCN)NC(=O)[C@H](CCC(=O)O)NC(=O)[C@H](CCCNC(=N)N)NC(=O)CNC(=O)[C@H](CCC(=O)O)NC(=O)[C@H](CC(C)C)NC(C)=O)C(C)C)[C@@H](C)CC)[C@@H](C)O)C(N)=O)C(=O)O)C(=O)O)C(=O)O` [compound 38] (Ac-LEGREKVRAK(Ac)I[Aib][Aib]EG[Nle]STWS[Aib]RK[PEG12]K([γGlu-γGlu-γGlu-Palmitoyl])-NH2), at RXFP1, the EC50 worked out at 0.21 nM and the Emax is 89%. In data set [1], the C0 is 4.37 µM, the half-life was 7.16 h, the Cmax is 2.5 µM and the Tmax turned out to be 8 h. Further, in data set [1], the bioavailability amounted to 79%.
Take `CCCCCCCCCCCCCCCC(=O)N[C@@H](CCC(=O)N[C@@H](CCC(=O)N[C@@H](CCC(=O)N[C@@H](CCC(=O)NCCCC[C@H](NC(=O)COCCOCCNC(=O)COCCOCCNC(=O)COCCOCCNC(=O)COCCOCCNC(=O)[C@H](CCCCNC(C)=O)NC(=O)[C@H](CCCCN)NC(=O)[C@H](CCCNC(=N)N)NC(=O)[C@](C)(CCCCN)NC(=O)[C@H](CO)NC(=O)[C@H](Cc1c[nH]c2ccccc12)NC(=O)[C@@H](NC(=O)[C@H](CO)NC(=O)[C@H](CCCC)NC(=O)CNC(=O)[C@H](CCC(=O)O)NC(=O)C(C)(C)NC(=O)C(C)(C)NC(=O)[C@@H](NC(=O)[C@H](CCCCNC(C)=O)NC(=O)[C@H](C)NC(=O)[C@H](CCCNC(=N)N)NC(=O)[C@@H](NC(=O)[C@H](CCCCN)NC(=O)[C@H](CCC(=O)O)NC(=O)[C@H](CCCNC(=N)N)NC(=O)CNC(=O)[C@H](CCC(=O)O)NC(=O)[C@H](CC(C)C)NC(C)=O)C(C)C)[C@@H](C)CC)[C@@H](C)O)C(N)=O)C(=O)O)C(=O)O)C(=O)O)C(=O)O` [compound 131] (Ac-LEGREKVRAK(Ac)I[Aib][Aib]EG[Nle]STWS[αMeK]RKK(Ac)[AEEA][AEEA][AEEA][AEEA]K([γGlu-γGlu-γGlu-γGlu-Palmitoyl])-NH2): on RXFP1, the EC50 is 0.26 nM and the Emax came out at 92%. Also, in data set [1], the C0 was 2.5 µM, the half-life is 6.3 h, the Cmax stood at 1.39 µM and the Tmax is 8 h. Also, the bioavailability in data set [1] is 82%.
Turning to `CCCCCCCCCCCCCCCCCC(=O)N[C@@H](CCC(=O)NCCOCCOCC(=O)N[C@@H](CCC(=O)N[C@@H](CCC(=O)NCCOCCOCC(=O)NCCOCCOCC(=O)NCCCC[C@H](NC(=O)[C@H](CCCCN)NC(=O)[C@H](CCCNC(=N)N)NC(=O)C(C)(C)NC(=O)[C@H](CO)NC(=O)[C@H](Cc1c[nH]c2ccccc12)NC(=O)[C@@H](NC(=O)[C@H](CO)NC(=O)[C@H](CCCC)NC(=O)CNC(=O)[C@H](CCC(=O)O)NC(=O)C(C)(C)NC(=O)C(C)(C)NC(=O)[C@@H](NC(=O)[C@H](CCC(N)=O)NC(=O)[C@H](C)NC(=O)[C@H](CCCNC(=N)N)NC(=O)[C@@H](NC(=O)[C@H](CCCCN)NC(=O)[C@H](CCC(=O)O)NC(=O)[C@H](CCCNC(=N)N)NC(=O)CNC(=O)[C@H](CCC(=O)O)NC(=O)[C@H](CC(C)C)NC(C)=O)C(C)C)[C@@H](C)CC)[C@@H](C)O)C(N)=O)C(=O)O)C(=O)O)C(=O)O` [compound 100] (Ac-LEGREKVRAQI[Aib][Aib]EG[Nle]STWS[Aib]RKK([AEEA-AEEA-γGlu-γGlu-AEEA-γGlu-Stearoyl])-NH2), on RXFP1, the EC50 was found to be 0.16 nM and the Emax worked out at 90%. In data set [1], the C0 is 3.1 µM, the half-life was 2.8 h, the highest level (Cmax) was 2.36 µM and the Tmax turned out to be 7 h. Also, the bioavailability in data set [1] came to 41%.
For `CCCCCCCCCCCCCCCC(=O)N[C@@H](CCC(=O)N[C@@H](CCC(=O)NCCCC[C@H](NC(=O)CC[C@H](NC(=O)CC[C@H](NC(=O)CCC(=O)NCCCOCCOCCOCCCNC(=O)CCC(=O)NCCCOCCOCCOCCCNC(=O)CCC(=O)NCCCOCCOCCOCCCNC(=O)[C@H](CCCCNC(C)=O)NC(=O)[C@H](C)NC(=O)[C@H](CCCNC(=N)N)NC(=O)[C@](C)(CCCCN)NC(=O)[C@H](CO)NC(=O)[C@H](Cc1ccccc1)NC(=O)[C@@H](NC(=O)[C@H](CO)NC(=O)[C@H](CCCC)NC(=O)CNC(=O)[C@H](CCC(=O)O)NC(=O)C(C)(C)NC(=O)C(C)(C)NC(=O)[C@@H](NC(=O)[C@H](CCCCNC(C)=O)NC(=O)[C@H](C)NC(=O)[C@H](CCCNC(=N)N)NC(=O)[C@@H](NC(=O)[C@H](CCCCN)NC(=O)[C@H](CCC(=O)O)NC(=O)[C@H](CCCNC(=N)N)NC(=O)CNC(=O)[C@H](CCC(=O)O)NC(=O)[C@H](CC(C)C)NC(C)=O)C(C)C)[C@@H](C)CC)[C@@H](C)O)C(=O)O)C(=O)O)C(N)=O)C(=O)O)C(=O)O` [compound 169] (Ac-LEGREKVRAK(Ac)I[Aib][Aib]EG[Nle]STFS[αMeK]RAK(Ac)-X4), at RXFP1, the EC50 came out at 0.01 nM and the Emax came to 89%. In data set [1], the C0 is 3.04 µM, the half-life is 5.8 h, the Cmax came out at 1.89 µM and the Tmax was determined as 6 h. Besides, the bioavailability in data set [1] is 69%.

These data come from US10988523B2, “Modified lipidated Relaxin B chain peptides and their therapeutic use” (Sanofi, priority 2018, dated 2021).
